Experiments:
[1] = target: T1, ROCKII (1-543) (Homo sapiens (Human), UniProt O75116); test: IMAP Assay (fluorescence polarization, FAM S6 peptide); format: biochemical; settings: 100 μM ATP, 200 nM FAM S6 peptide, 1 nM kinase; read-out: Assay 2 IC50
Procedure: This assay is performed using FAM S6 substrate peptide (Catalogue #R7184) and IMAP FP Screening Express Kit detection reagents from Molecular Devices (Sunnyvale, Calif.) in IMAP kinase reaction buffer (Tris-HCl, pH 7.2, 10 mM MgCl2, 0.05% NaN3, 0.1% phosphate-free BSA) containing 1 mM DTT. Test compounds dissolved in neat DMSO at 0.3 mg/mL are serially diluted 1 to 3 for concentration response in 100% DMSO. The DMSO serial dilutions are further diluted 33.33-fold in kinase reaction buffer, and 10 μL of this buffer dilution is transferred to Corning black 96-well half area NBS plates for a final top concentration of 3 μg/mL in 1% DMSO. 10 μL aliquot of 3 nM ROCKII (1-543) diluted in kinase reaction buffer is added to each assay well for a final concentration of 1 nM kinase. 10 μL of a mixture of 600 nM FAM S6 peptide and 300 μM ATP diluted in kinase reaction buffer is added to each well for a final concentration of 200 nM peptide and 100 μM ATP. The kinase reaction mixture is incubated for 60 minutes at room temperature. Positive controls are reaction mixtures containing no test compound and negative controls (blanks) are reaction mixtures containing no kinase. The kinase reaction is stopped by addition of 60 μL IMAP progressive binding reagent (Catalog #R7284) diluted 400-fold in 1× Binding buffer A. After 30 min of incubation at room temperature, the plates are read for fluorescence polarization on Analyst Plate Reader using Ex 485 nm, Em 530 nm, and FL 505 dichroic mirror. The mP signals are converted to percent of control (POC) values using the formula: POC=100*(Signal−BCTRL)÷(PCTRL−BCTRL)
Where Signal is the test well signal, BCTRL is the average of background (negative control) well signals on the plate and PCTRL is the average of positive control well signals on the plate. For the concentration-responsive compounds, POC as a function of test compound concentration is fitted to a 4-parameter logistic equation of the form: Y=A+(B−A)/[1+(x/C)D] Where A, B, C, and D are fitted parameters (parameter B is fixed at zero POC), and x and y are the independent and dependent variables, respectively. The IC50 is determined as the inflection point parameter, C.
Target sequence in this assay (O75116 1-543, species assumed): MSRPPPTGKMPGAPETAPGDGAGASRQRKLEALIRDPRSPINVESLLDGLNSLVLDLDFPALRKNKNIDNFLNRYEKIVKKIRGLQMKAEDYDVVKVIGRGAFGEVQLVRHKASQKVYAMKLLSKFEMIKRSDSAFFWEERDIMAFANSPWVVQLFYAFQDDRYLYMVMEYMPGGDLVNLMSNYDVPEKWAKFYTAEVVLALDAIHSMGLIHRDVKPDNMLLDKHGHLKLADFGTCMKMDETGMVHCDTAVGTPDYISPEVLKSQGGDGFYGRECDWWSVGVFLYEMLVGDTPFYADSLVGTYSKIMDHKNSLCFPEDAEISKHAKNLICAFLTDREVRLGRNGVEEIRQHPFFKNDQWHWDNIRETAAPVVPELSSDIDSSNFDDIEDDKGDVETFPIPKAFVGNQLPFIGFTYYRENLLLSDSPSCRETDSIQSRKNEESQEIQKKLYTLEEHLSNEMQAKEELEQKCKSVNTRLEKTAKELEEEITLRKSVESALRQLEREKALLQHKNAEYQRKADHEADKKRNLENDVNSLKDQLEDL

[2] = target: T1, ROCKII (1-543); test: Luciferin-Luciferase Assay (PKLight ATP detection); format: biochemical; settings: 750 nM ATP, 500 nM peptide, 7.5 nM kinase
Procedure: 1. Luciferin-Luciferase Assay
The activity of ROCKII (1-543) kinase was measured utilizing Cambrex PKLight ATP Detection Reagent, a homogeneous assay technology using luciferin-luciferase to quantify residual ATP. The assay was performed in 384-well low-volume, white, non-binding surface microtiter plates (Corning). The assay buffer was 25 mM HEPES, pH 7.5, 10 mM MgCl2, 50 mM KCl, 0.2% BSA, 0.01% CHAPS, 100 μM Na3VO4 and 0.5 mM DTT. Test compounds, dissolved in neat DMSO at 500 μg/mL, were serially diluted for dose response for a final starting concentration of 3 μg/mL in 1% DMSO of assay buffer. ROCKII (1-543) (62,408Da) was diluted in assay buffer to a final concentration of 7.5 nM in a total volume of 15 μL. Positive controls were reaction mixtures containing no test compound; negative controls (blanks) were reaction mixtures containing no kinase. After 15 minutes of pre-incubation of the test compounds with the kinase, a mixture of ATP and peptide substrate ([…]) in assay buffer was added to each well for a final concentration of 750 nM ATP and 500 nM peptide, respectively. After 90 minutes of incubation of the kinase reaction at 28° C. temperature, 10 μL of PKLight ATP Detection Reagent (warmed to room temperature previously) was added to each well. The assay plate was incubated at room temperature for additional 15 minutes and then read on an Analyst in luminescence mode. Dose-response experiments for each of the test compounds were conducted in quadruplet. IC50 values of test compounds represent 50% response of the positive control from the dose-response curve.
Target sequence in this assay (O75116 1-543): as the sequence (O75116 1-543, species assumed) above

[3] = test system: spontaneously hypertensive rat, renal hypertensive rat and deoxycortisone acetate salt hypertensive rat models; settings: cited from earlier work
[4] = test system: Dahl salt-sensitive rats; settings: rat, in vivo; cited from earlier work
[5] = test system: neointimal formation in rats; settings: cited from earlier work
[6] = test system: IL-1 beta-induced coronary stenosis; settings: long term treatment; cited from earlier work
[7] = test system: rat stroke model; settings: in vivo; cited from earlier work

Row | Structure (SMILES) | IC50 [1] [nM] | IC50 [2] [nM] | also measured
1 | CN1CCc2nc(NC(=O)c3cccc([C@H]4CCCN4C(=O)Nc4ccc(C(N)=O)cc4)c3)sc2C1 [Compound 44] | 0.7 | 1.4 | –
2 | Cc1nc(-c2ccncc2)sc1C(=O)N1CCC[C@@H]1c1cccc(C(=O)Nc2nc3c(s2)C[C@@H](N(C)C)CC3)c1 [Compound 48] | 10 | 2.8 | –
3 | CN(C)[C@H]1CCc2nc(NC(=O)c3cccc([C@H]4CCCN4C(=O)c4nnn(-c5nonc5N)c4-c4ccccc4)c3)sc2C1 [Compound 50] | 8.7 | 2.2 | –
4 | CN1CCc2nc(NC(=O)c3cccc([C@H]4CCCN4C(=O)c4cccc(-c5cn[nH]c5)c4)c3)sc2C1 [Compound 78] | 2.1 | 1.9 | –
5 | COc1ccc(C(=O)N[C@H](C)c2cccc(C(=O)Nc3nc4c(s3)CN(C)CC4)c2)cc1Cl [Compound 89] | 13 | 3.9 | –
6 | COc1ccc(C(=O)N[C@H](C)c2cccc(C(=O)Nc3nc4c(s3)CN(C)CC4)c2)cc1C [Compound 93] | 29 | 9 | –
7 | COc1ccc(C(=O)N[C@H](C)c2cccc(C(=O)Nc3nc4c(s3)CN(C)CC4)c2)cc1OC [Compound 97] | 5.8 | 3.1 | –
8 | CCCC[C@@H](NC(=O)c1ccc(OC)c(OC)c1)c1cccc(C(=O)Nc2nc3c(s2)CN(C)CC3)c1 [Compound 98] | 11 | 6.2 | –
9 | CN1CCc2nc(NC(=O)c3cccc([C@H]4CCCN4C(=O)Nc4cccc(C#N)c4)c3)sc2C1 [Compound 101, (R)-2-[3-(5-Methyl-4,5,6,7-tetrahydro-thiazolo[5,4-c]pyridin-2-ylcarbamoyl)-phenyl]-pyrrolidine-1-carboxylic acid (3-cyano-phenyl)-amide trifluoroacetic acid] | 6.8 | 3.1 | –
10 | CN(C)[C@H]1CCc2nc(NC(=O)c3cccc([C@H]4CCCN4C(=O)c4ccc(-n5ccnc5)cc4)c3)sc2C1 [Compound 102] | 3.6 | 2.6 | –
11 | CN(C)[C@H]1CCc2nc(NC(=O)c3cccc([C@H]4CCCN4C(=O)c4ccc5[nH]c(=O)ccc5c4)c3)sc2C1 [Compound 108] | 3.6 | 2.3 | –
12 | N#Cc1cccc2c1CCN2C(=O)N1CCC[C@@H]1c1cccc(C(=O)Nc2nc3c(s2)C[C@@H](N2CCOCC2)CC3)c1 [Compound 110] | 2.9 | 2.9 | –
13 | COc1ccc(C(=O)N2CCC[C@@H]2c2cccc(C(=O)Nc3nc4c(s3)C[C@@H](N3CCOCC3)CC4)c2)cc1OC [Compound 112] | 6.8 | 3.6 | –
14 | COc1ccc(C(=O)N2CCC[C@@H]2c2cccc(C(=O)Nc3nc4c(s3)C[C@@H](N3CCOCC3)CC4)c2)cc1C [Compound 116] | 9.7 | 7.8 | –
15 | O=C(Nc1nc2c(s1)C[C@@H](N1CCOCC1)CC2)c1cccc([C@H]2CCCN2C(=O)c2ccc(-c3cnco3)cc2)c1 [Compound 118] | 6.9 | 2.5 | –
16 | O=C(Nc1nc2c(s1)C[C@@H](N1CCOCC1)CC2)c1cccc([C@H]2CCCN2C(=O)c2csc(-c3ccncc3)n2)c1 [Compound 120] | 7.9 | 3.2 | –

Row | Structure (SMILES) | IC50 [1] [nM] | IC50 [2] [nM] | also measured
17 | O=C(Nc1nc2c(s1)C[C@@H](N1CCOCC1)CC2)c1cccc([C@H]2CCCN2C(=O)c2ccc(-n3ccnc3)cc2)c1 [Compound 122] | 8.3 | 3.5 | –
18 | NC(=O)c1ccc2nc(C(=O)N3CCC[C@@H]3c3cccc(C(=O)Nc4nc5c(s4)C[C@@H](N4CCOCC4)CC5)c3)cn2c1 [Compound 124] | 6.7 | 2.3 | –
19 | O=C(Nc1nc2c(s1)C[C@@H](N1CCOCC1)CC2)c1cccc([C@H]2CCCN2C(=O)c2ccc3[nH]c(=O)ccc3c2)c1 [Compound 126] | 7 | 2.7 | –
20 | Cc1nc(-c2ccncc2)sc1C(=O)N1CCC[C@@H]1c1cccc(C(=O)Nc2nc3c(s2)C[C@@H](N2CCOCC2)CC3)c1 [Compound 128] | 29 | 3.6 | –
21 | O=C(Nc1nc2c(s1)C[C@@H](N1CCOCC1)CC2)c1cccc([C@H]2CCCN2C(=O)c2ccc3cc(O)ccc3c2)c1 [Compound 130] | 6.3 | 2.5 | –
22 | O=C(Nc1nc2c(s1)C[C@@H](N1CCOCC1)CC2)c1cccc([C@H]2CCCN2C(=O)c2ccc(-c3ccncc3)cc2)c1 [Compound 132] | 17 | 2.6 | –
23 | Nc1nonc1-n1nnc(C(=O)N2CCC[C@@H]2c2cccc(C(=O)Nc3nc4c(s3)C[C@@H](N3CCOCC3)CC4)c2)c1-c1ccccc1 [Compound 134] | 30 | 2.7 | –
24 | O=C(Nc1nc2c(s1)C[C@@H](N1CCOCC1)CC2)c1cccc([C@H]2CCCN2C(=O)c2csc(-c3cccnc3)n2)c1 [Compound 136] | 6.9 | 2.6 | –
25 | O=C(Nc1nc2c(s1)C[C@@H](N1CCOCC1)CC2)c1cccc([C@H]2CCCN2C(=O)c2cccc(-c3cn[nH]c3)c2)c1 [Compound 140] | 4.9 | 2.5 | –
26 | CN1CCc2nc(NC(=O)c3cccc([C@H]4CCCN4C(=O)c4cn5ccc(C#N)cc5n4)c3)sc2C1 [Compound 148, 3-[(R)-1-(7-Cyano-imidazo[1,2-a]pyridine-2-carbonyl)-pyrrolidin-2-yl]-N-(5-methyl-4,5,6,7-tetrahydro-thiazolo[5,4-c]pyridin-2-yl)-benzamide] | 12 | 2.9 | –
27 | N#Cc1ccc(NC(=O)COc2cccc(C(=O)Nc3nc4c(s3)CC(N3CCN(C5CC5)CC3)CC4)c2)cc1 (centres unmarked) [Compound 152] | 24 | 6.1 | –
28 | CN1CCN(C2CCc3nc(NC(=O)c4cccc(OCC(=O)Nc5ccc(C#N)cc5)c4)sc3C2)CC1 (centres unmarked) [Compound 154] | 33 | 6.5 | –
29 | COCCN(C)C1CCc2nc(NC(=O)c3cccc(OCC(=O)Nc4ccc(C#N)cc4)c3)sc2C1 (centres unmarked) [Compound 156] | 31 | 7.2 | –
30 | C[C@@H](N)[C@H]1CC[C@H](C(=O)Nc2ccncc2)CC1 [Compound Y-27632, Y-27632] | – | – | blood pressure in control rats ([3]; control rats): only a minor effect on blood pressure; blood pressure in three rat models of hypertension ([3]; hypertensive rats): significantly decrease blood pressure; ventricular hypertrophy and function [4]: improve ventricular hypertrophy and function; neointimal formation [5]: inhibited neointimal formation
31 | O=S(=O)(c1cccc2cnccc12)N1CCCNCC1 [fasudil] | – | – | coronary constrictive remodeling [6]: promote a regression of coronary constrictive remodeling; coronary stenosis [6]: progressively reduce coronary stenosis; infarct size and neurologic deficit [7]: reduce both the infarct size and neurologic deficit

From patent publication US9079880B2, “Rho kinase inhibitors” (Boehringer Ingelheim International GmbH, priority 2010, dated 2015)
